According to patent publication US11332483B2, “Naphthoquinone containing gold carbene complexes and methods of uses thereof” (BOARD OF REGENTS, THE UNIVERSITY OF TEXAS SYSTEM, priority 2017, dated 2022):
Where two headings read alike, the source gives them in different places.

Key:
[1] = tested on: A549 lung cancer cells; experiment: Cell proliferation (MTT) assay in A549 lung cancer cells; type: cell-based, human
Protocol: (§1) Cells were harvested and seeded into 96-well culture plates (Costar 07-200-90) in 100 μL of culture media. They were allowed to incubate overnight at 37° C. in the presence of 5% CO2. A549 was seeded at a density of 1000 cells/well, A2780 at 2500 cells/well, A2780CP at 3000 cells/well, and PC-3 at 2000 cells/well. The next day, appropriate serial dilutions of drug stocks in culture media were made. To each well of a 96 well plate was added 100 μL of the appropriate solution. After a total of three days, a […] aliquot of 3 mg/mL tetrazolium dye, 344,5-dimethylthiazol-2-yl)-2,5-diphenyltetrazolium bromide (Alfa Aesar L11939) was added to each well, followed by a 4 hr incubation period at 37° C. The medium was then removed, the resulting formazan was dissolved in […] DMSO and the respective absorbances were measured at 560-650 nm using a microplate reader (Molecular Devices, Sunnyvale, Calif.). Absorbance values were corrected for background and then normalized to wells containing untreated cells to allow for plate-to-plate comparisons. The data are shown as mean inhibition of proliferation or growth as a percentage of control cells and are from 2-3 replicate experiments. Resulting dose response curves were subjected to linear regression analysis (Origin by OriginLab, Inc.) for determination of IC50 values.

[2] = tested on: fetal bovine serum proteins
Protocol: To assess potential drug protein interactions, samples of fetal bovine serum (FBS) were treated with 25 μM 1, 3, and auranofin prior to incubating at 37° C. Aliquots were taken and the free Au (non-protein bound, methanolic extracts) content was analyzed by ICP-MS (FIG. 3B).
A 25 μM solution of each compound in 3 mL warm FBS was made. The solutions were kept at 37° C. Over time, 100 μL aliquots of each solution were taken and precipitated into 400 μL cold methanol. Precipitated aliquots were stored at −80° C. The methanolic suspensions were then centrifuged at 11,000 rcf for 5 min in an Edvotek microcentrifuge. The supernatants were pipetted into new microcentrifuge tubes. Samples were prepared for ICP-MS by adding 200 μL supernatant from each sample to 2 mL 3% Trace Metal Grade HCl. Time points were at addition of compound (T0), 4, 6.25, 9.75, 12, 24, 48, 72, and 100 h.

[3] = tested on: A549 cells; experiment: Detection of intracellular ROS by flow cytometry (CM-H2DCFDA); type: cell-based, human; settings: A549, 2.5 μM, 6 h incubation
Protocol: To establish whether or not the complexes of this disclosure would increase intracellular ROS levels, A549 cells were treated with each complex in a dose responsive manner.
Tumor cells (1×10^6) were plated in a 6-well plate overnight and then incubated with media containing various complexes described at concentrations of 0.625-2.5 μM. Control cells were treated with vehicle only. After a 6 h. incubation, the cells were washed with PBS, detached with 0.250 mL 1× trypsin, collected in a 15 mL conical tube, and pelleted by centrifugation (3 min @ 300 g) at 5° C. The resulting pellet was again washed 2× with cold PBS and pelleted at 5° C. […] The cells were then pelleted, washed with 2 mL PBS, and re-suspended in PBS containing 2 μg/mL propidium iodide (PI, Chemodex P0023) for a final cell concentration of 0.5×10^6 cells/mL. Control samples of unstained cells, cells stained with only CM-H2DCFDA, and cells stained with only PI were also prepared. Each sample was added to one well of a 96-well plate. Samples were then subjected to FACS analysis using a Millipore Guava easyCyte 8 and analyzed using the Guava inCyte software.

[4] = tested on: A549 cancer cells; settings: A549, 1.25 μM
Protocol: All cells were selectively stained for visualization of ROS accentuation (green, CM-H2DCFDA), mitochondria (red, Mitotracker Red), and nuclei (blue, Hoechst).
Cells were then incubated with 1.25 μM complex at 37° C. 4 h. Post incubation, the media was removed and cells were washed (2×) with PBS. Cells were then incubated with 1 μM CM-H2DCFDA (Lifetech C6827) in PBS at 37° C. for 15 min. The dye-PBS solution was removed and cells were washed with PBS (2×). To the cells was added a PBS solution containing 1 ug/mL Hoechst 33342 (Lifetech H1399) and 50 nM Mitotracker Red FM (Lifetech M22425) for 30 min at 37° C. After incubation, the dye-PBS solution was removed and cells were washed with PBS (2×). Cells were then imaged fluorescently on a Leica SP5 X White light laser confocal microscope. Images were taken with a 63×, NA 1.4 objective.

[5] = tested on: PC-3 prostate (p53 null); experiment: Cell proliferation (MTT) assay in PC-3 prostate cells; type: cell-based; settings: Table 3; error is standard error of the mean
Protocol: Further anti-proliferation studies were carried out with complex 1 and its naphthoquinone component 4[H][Cl] using the following cell lines: A2780 ovarian (a wt-p53 cell line sensitive to platinum treatment), 2780CP ovarian (isogenic to A2780 but expressing multi-drug resistance (MDR)), and PC-3 prostate (p53 null) (Table 3).
as §1, with “The data are shown as mean inhibition of proliferation or growth as a percentage of control cells and are from 2-3 replicate experiments. Resulting dose response curves were subjected to linear regression analysis (Origin by OriginLab, Inc.) for determination of IC50 values.” left out

[6] = Electrochemical analysis (differential pulse voltammetry) in DMSO; type: physicochemical; settings: 0.1M [N(nBu)4][PF6], 0.1 mM analyte, vs SCE
Protocol: [Cl] (Guth et al., 2011; Gómez et al., 2003).
1,3-Dimesitylnapthoquinimidazolium chloride (Sanderson et al., 2006; Tennyson et al., 2010), (1,3-dimesityl-4,5-naphthoquino-imidazol-2-ylidene)-silver(I) chloride (Sanderson et al., 2006; Tennyson et al., 2010), (C4H2S)AuCl (Hashmi, et al., 2010) were prepared according to the literature procedures. All other reagents were purchased from commercial sources and used as received, including: [((CH3)3Si)2N]Na (NaHMDS) and silver(I) oxide. CD2Cl2 (99.9%) was purchased from Acros Laboratories in glass ampules and used as received. Solvents were either dried with a solvent purification system from the Inert Innovative Technology, Inc. (dichloromethane, diethyl ether, hexanes, tetrahydrofuran and toluene) or freshly distilled over 3 Å molecular sieves and degassed using three consecutive freeze-pump-thaw cycles prior to use. UV-vis spectra were obtained at ambient temperature with a Hewlett-Packard 8452A diode array spectrophotometer with molar absorptivities reported in M^−1 cm^−1. ^1H and ^13C NMR spectra were recorded on Bruker 300 MHz spectrometer. Spectra were referenced to the residual solvent as an internal standard, for ^1H NMR: CD2Cl2, 5.32 ppm and ^13C NMR: CD2Cl2, 53.84 ppm. High-resolution mass spectra (HRMS) were obtained with an Agilent Technologies 6530 Accurate Mass Q-TOF LC/MS (ESI) and are reported as m/z (relative intensity). Electroanalytical measurements were performed on a CHI620E electrochemical workstation using a silver wire quasi-reference electrode, a platinum disk working electrode and a Pt wire auxiliary electrode in a three-electrode cell under an atmosphere of nitrogen. […] All potentials listed herein were determined by differential pulse voltammetry and referenced to a saturated calomel electrode (SCE) by shifting ferrocene^0/+ to 0.435 V (DMSO) (Aranzaes et al., 2006). Spectroelectrochemistry measurements were obtained at ambient temperature with a custom designed three-electrode cell using Hewlett-Packard 8452A diode array spectrophotometer and CHI620E. Elemental analyses were performed by Midwest Microlab, LLC in Indianapolis, Ind. […] Trypsin (Hyclone SH30236.01) and Dulbecco's Phosphate Buffer Saline (Sigma R5886) were used for general cell maintenance and harvesting. Cell lines were obtained from the ATCC (A549 and PC-3) and Prof. Zahid Siddik at MD Anderson (A2780 and A2780CP). Thiazolyl blue tetrazolium bromide (Alfa Aesar L11939) was used for cell proliferation assays. Cell culture plastic ware consisted of generic T-75 flasks, 80.5 mm diameter culture dishes, and treated 96-well plates.

[7] = tested on: A549 cells; settings: A549, 24 h
Protocol: Control cells were treated with vehicle only. At 24 h, the media was collected and the cells were washed with PBS. The PBS washing was collected and the attached cells were then subjected to 0.5× trypsin (diluted with PBS) for 2 min. All media and washings were collected, pelleted by centrifugation (3 min @ 300 g) and washed twice with cold PBS. […] After this, 100 μL of cell suspension was added to 1.5 mL centrifuge tubes, followed by 5 μL each of Annexin V-FITC and propidium iodide (PI, 50 μg/mL) solution. Control samples of unstained cells, cells stained with only Annexin V-FITC, and cells stained with only PI were also prepared. Samples were allowed to incubate in the dark for 15 min at ambient temperature. After incubation, each sample was diluted with 200 μL of Annexin V binding buffer, and the resulting 300 μL sample was added to one well of a 96-well plate. Samples were then subjected to FACS analysis using a Millipore Guava easyCyte 8 and analyzed using Guava inCyte software.

## Cc1cc(C)c(-n2c3c([n+](-c4c(C)cc(C)cc4C)[c]2[Au-][c]2n(-c4c(C)cc(C)cc4C)c4c([n+]2-c2c(C)cc(C)cc2C)C(=O)c2ccccc2C4=O)C(=O)c2ccccc2C3=O)c(C)c1.[Cl][Ag-][Cl] [Compound 1, [Bis(1,3-dimesityl-4,5-naphthoquino-imidazol-2-ylidene)-gold(I)] [Silver(I)dichloride]]
[1]; A549 IC50 relative to complex 1
  Fold Difference relative to 1: 1
[1]; A549 lung cancer cells, MTT, 72 h, read-out: IC50
  IC50: 73 ± 16 nM
[1]; Table 3, error is standard error of the mean, read-out: IC50 A549 Lung
  IC50: 73 ± 16 nM
[2]
  free Au (non-protein bound) content as a function of time: minimal changes in the free Au levels
[3]
  fluorescence associated cell population shift (intracellular ROS increase): 27 fold
[4]
  subcellular loci of ROS accentuation: ROS accentuation is arising from mitochondria
[5]
  IC50: 96 ± 17 nM
[6]
  E1/2 (V) DPV, first reduction, formation of semiquinone radical: −0.42 V
  E1/2^b (V) DPV, second reduction, formation of quinone dianion: −1.31 V
[7]
  induction of apoptosis (annexin-V/PI): induces controlled cell death via an apoptotic mechanism
